The source made the active and inactive calls. The calls are words filed in the database; no cut-off is given here.
How the values were obtained:
[1] = Resistance index, ratio of IC50 for human MCF7/Taxol cells to IC50 for human MCF7 cells; assay type: functional
A549/TR [2] = test: Induction of cell cycle arrest in human A549/Taxol cells assessed as accumulation of cells at G0/G1 phase at 0.01 uM incubated for 24 hrs by PI staining based flow cytometry analysis (reference value: 77.86%); assay type: functional
[3] = molecular target: Protein cereblon/Tubulin beta-3 chain (Homo sapiens, UniProt Q13509+Q96SW2); test: Protac activity at CRBN/beta3-tubulin in human HepG2 cells assessed as reduction in beta3-tubulin level at 10 to 1000 nM incubated for 48 hrs by immunoblotting analysis; assay type: cell-based; conditions: dose 10-1000 nM
Protein cereblon/Tubulin beta-3 chain, sequence (Q13509 whole entry, looked up): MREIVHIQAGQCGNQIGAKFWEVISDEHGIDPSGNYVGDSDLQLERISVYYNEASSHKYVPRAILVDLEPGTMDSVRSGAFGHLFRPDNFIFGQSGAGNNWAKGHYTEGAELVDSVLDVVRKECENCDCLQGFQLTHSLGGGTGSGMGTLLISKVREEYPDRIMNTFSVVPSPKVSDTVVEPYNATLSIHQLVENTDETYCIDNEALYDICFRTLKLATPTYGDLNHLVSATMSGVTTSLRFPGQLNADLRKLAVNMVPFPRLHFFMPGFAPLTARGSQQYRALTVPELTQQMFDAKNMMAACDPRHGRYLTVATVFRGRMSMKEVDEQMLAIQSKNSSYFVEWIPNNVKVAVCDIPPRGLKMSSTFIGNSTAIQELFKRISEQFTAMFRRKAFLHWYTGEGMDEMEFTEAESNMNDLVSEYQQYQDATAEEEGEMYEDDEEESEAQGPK
Protein cereblon/Tubulin beta-3 chain, sequence (Q96SW2 whole entry, looked up): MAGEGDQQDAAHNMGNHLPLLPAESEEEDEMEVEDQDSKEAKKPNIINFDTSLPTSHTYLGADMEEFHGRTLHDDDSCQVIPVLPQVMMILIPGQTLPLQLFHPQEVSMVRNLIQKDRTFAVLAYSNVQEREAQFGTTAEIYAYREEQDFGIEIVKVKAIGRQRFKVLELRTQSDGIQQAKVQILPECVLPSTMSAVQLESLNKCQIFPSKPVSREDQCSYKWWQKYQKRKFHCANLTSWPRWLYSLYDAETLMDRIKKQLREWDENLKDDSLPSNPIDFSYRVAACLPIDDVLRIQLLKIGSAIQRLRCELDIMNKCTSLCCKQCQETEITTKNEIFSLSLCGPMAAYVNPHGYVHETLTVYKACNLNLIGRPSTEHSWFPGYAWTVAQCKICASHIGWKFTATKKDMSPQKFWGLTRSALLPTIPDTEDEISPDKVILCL

[4] = molecular target: Protein cereblon-alpha tubulin (Homo sapiens) (UniProt P0DPH7+P68366+Q71U36+P68363+Q9BQE3+Q6PEY2+A6NHL2+Q9NY65+Q96SW2); test: Protac activity at CRBN/alpha-tubulin in human MGC-803 cells assessed as reduction in alpha-tubulin level at 10 to 1000 nM incubated for 48 hrs by immunoblotting analysis; assay type: cell-based; conditions: dose 10-1000 nM
A549/TR [5] = test: Induction of cell cycle arrest in human A549/Taxol cells assessed as accumulation of cells at S phase at 0.05 uM incubated for 24 hrs by PI staining based flow cytometry analysis (reference value: 2.85%); assay type: functional

- Activity [3]: Active
- Activity [4]: Active
SMILES: COc1ccc(/C=C\c2cc(OC)c(OC)c(OC)c2)cc1OC(=O)CCCNc1cccc2c1C(=O)N(C1CCC(=O)NC1=O)C2=O (stereo not given)
- Ratio IC50 [1]: 0.5
- Activity (A549/TR [2]): 26.79%
- Activity (A549/TR [5]): 3.85%

Reference: ChEMBL document CHEMBL5518186, “Discovery of the cereblon-recruiting tubulin PROTACs effective in overcoming Taxol resistance in vitro and in vivo” (Eur J Med Chem, 2024)
